Earlier results in US20080008727A1, “Compositions comprising adapalene dissolved with cyclodextrins” (GALDERMA RESEARCH & DEVELOPMENT, priority 2004, published 2008).

SMILES: COc1ccc(-c2ccc3cc(C(=O)O)ccc3c2)cc1C12CC3CC(CC(C3)C1)C2 [adapalene, 6-[3-(1-adamantyl)-4-methoxyphenyl]-2-naphthoic acid]
- Solubility in water (in words): practically insoluble in water
